One data set concerns iCSCA2 cells. As to the kind of experiment: Immunoblotting of iron homeostasis regulatory proteins. The format is cell-based. As to the method:
(§1) Immunoblotting. Cells were treated as indicated, then washed twice with PBS and lysed with 2× Laemmli buffer. Cell extracts were heated at 95° C. for 5 min, sheared through a 26-gauge needle and quantified with a Nanodrop 2000 (Thermo Scientific). Protein lysates (˜100 μg) were resolved by SDS-PAGE electrophoresis and transferred onto PVDF membranes (Amersham). Membranes were blocked with 5% BSA, 0.1% Tween-20/TBS for 1 h. The blots were then probed with the relevant primary antibodies in 5% BSA, 0.1% Tween-20/TBS at 4° C. overnight with gentle agitation. Membranes were washed with 0.1% Tween-20/TBS for 30 min and were incubated with secondary antibodies for 1 h at RT. Antigens were detected by ECL (Amersham). Imaging was performed using a ChemiDoc™ XRS+ System (Biorad).

The test system of data set [1] is non-CSC (HMLER CD24^high ID2) cells. Described as above. Type of data set: cell-based, human. As to the method:
as §1

In another data set the test system is MCF-7 tumors. As to the kind of experiment: Perl's reaction, iron(III) in MCF-7 xenograft tumor tissue. Type of data set: in vivo, mice. The conditions noted are these: 3 mg/kg body weight/day, intraperitoneal. The procedure: Xenograft tumor formation experiments. MCF-7 cell cultures were collected, enzymatically dissociated, washed with PBS, and re-suspended in a PBS/Matrigel mixture (1:1 v/v). The mixture (0.1 mL) was then implanted in the mammary fat pad of 5-week-old female AthymicNude-Fox1nu mice bilaterally (Harlan, France). Mice were maintained in individually-ventilated cages (Tecniplast, France) under constant temperature and humidity. All experiments were performed under laminar flow (Tecniplast France). Mice received estradiol supplementation (0.4 mg/kg) the same day and 7 days from cell injection, and were observed and palpated for tumor appearance. Mice were treated with AM5 (3 mg/kg body weight/day) by means of intraperitoneal injections every 5 opened days of the week. Tumor growth was measured weekly using calipers. Tumor volume was determined using the standard formula: L×W^2×0.52, where L and W are the longest and shortest diameters, respectively. All animal studies were approved by the Direction des services Vétérinaires, Prefecture de Police, Paris, France (authorization number A75-14-08) and the ethical committee (number 34) of Paris Descartes University. No randomization was used and experimenters were blinded to drug treatments and tissue analyses.
Perl's reaction. Tumors from mice were removed at time of sacrifice. Tumors were fixed with 4% PFA and embedded in paraffin. […]

A further data set has as its system iCSCL-10A2 cells. Nature of the data set: Annexin V/PI assay. To be noted: 0.5 μM, 72 h. The format is cell-based. The procedure:
Annexin V/PI assay. Cells were treated as indicated. After treatment, cell death was quantified using Annexin V-FITC/Propidium Iodide (PI) assay according to the manufacturer's protocol (FITC Annexin V Apoptosis Detection Kit II, 556570, BD Pharmingen™) and analyzed by a LSRFortessa™ flow cytometer (BD Bioscience, San Jose, Calif.). The data were processed using Cell Quest software (BD Biosciences).

The subject of data set [2] is ALDH+ iCSCL-10A2 cell subpopulation. As to the kind of experiment: Flow cytometry of ALDH+ CSC subpopulation in vitro. The conditions noted are these: 0.5 μM, 48 h. Type of data set: cell-based. As to the method:
FIG. 13. Sal and AM5 effect on an ALDH+CSC cell population in vitro. Flow cytometry measurement of the effect of 0.5 μM Sal and AM5 against ALDH+ iCSCL-10A2 cell subpopulation after treated for 48 h. DEAB is the diethylaminobenzaldehyde ALDH inhibitor.
(Flow cytometry measures light scatter and fluorescence of single cells or particles in a stream.)

The subject of a further data set is primary breast cells. As to the kind of experiment: Toxicity against primary breast cells. Type of data set: cell-based.
The subject of a further data set is BT474. Nature of the data set: Sensibility to AM5. Type of data set: cell-based, human. As to the method: (§2) Cell viability assay. Cell viability assay was carried out by plating 1000 cells/well in 96-well plates. Cells were treated as indicated for 72 h. CellTiter-Blue® Reagent (G8081, Promega) was added after 72 h treatment and cells were incubated for 1 h before recording fluorescence intensities (Excitation, 560/20 nm; Emission, 590/10 nm) using a Perkin Elmer Wallac 1420 Victor2 Microplate Reader.

The subject of a further data set is BT549. Nature of the data set: Sensibility to AM5. Type of data set: cell-based, human. To be noted: BT549, CSTN. As to the method:
as §2

The test system of a further data set is HBL100. Nature of the data set: Sensibility to AM5. Type of data set: cell-based, human. To be noted: HBL100, Non-tumoral. As to the method:
as §2

The subject of another data set is HMLER CD24^high. As to the kind of experiment: Sensibility to AM5. The format is cell-based, human. The procedure:
as §2

The test system of a further data set is MCF-7. Nature of the data set: Sensibility to AM5. Type of data set: cell-based, human. To be noted: MCF-7, H+. As to the method:
as §2

A further data set relates to MDA-MB-134. As to the kind of experiment: Sensibility to AM5. Type of data set: cell-based, human. The procedure:
as §2

The subject of a further data set is MDA-MB-231. Nature of the data set: Sensibility to AM5. Type of data set: cell-based, human. To be noted: MDA-MB-231, CSTN. The procedure:
as §2

A further data set deals with MDA-MB-361. Nature of the data set: Sensibility to AM5. Type of data set: cell-based, human. The procedure: as §2
In the next data set the test system is MDA-MD-157. As to the kind of experiment: Sensibility to AM5. The conditions noted are these: MDA-MD-157, CSTN. Type of data set: cell-based, human. The procedure:
as §2

The subject of another data set is T47D. Nature of the data set: Sensibility to AM5. Type of data set: cell-based, human. To be noted: H+. As to the method:
as §2

Another data set concerns Zr75.1. As to the kind of experiment: Sensibility to AM5. To be noted: Zr75.1, H+. Type of data set: cell-based, human. As to the method:
as §2

Another data set concerns SW480. Nature of the data set: Sensibility to AM5. The format is cell-based. To be noted: SW480, Colon. As to the method: as §2
Another data set concerns SW620. As to the kind of experiment: Sensibility to AM5. The format is cell-based. The conditions noted are these: SW620, Colon. As to the method:
as §2

Another data set in a line: RhoNox-1 reduction assay. To be noted: in the presence of iron (II). The procedure:
RhoNox-1 reduction assay. Experiments were carried in 96-well plate dishes. Reagent stock solutions were freshly prepared using Milli-Q water. 50 μL of solutions of Sal (800 μM), DFO (800 μM) and FeSO4 (80 μM) were mixed prior to addition of 50 μL of RhoNox-1 (40 μM) and completed with the appropriate volume of water to reach a final volume of 200 μL per well. Measurements were performed 30 min after addition of RhoNox-1 to the mix and were recorded using the PARADIGM™ Microplate Detection Platform (ex. 492 nm; em. 580 nm).

2 molecules from patent publication US11573241B2, “Total cellular iron as a marker of cancer stem cells and uses thereof” (Institut National de la Sante et de la Recherche Medicale …, priority 2016, dated 2023) can be followed below.

Structures are written as SMILES. Entries after “also recorded” stand apart in the source; their conditions may differ.

On to `C#CCN[C@@H]1C=C[C@]2(O[C@H]([C@@H](CC)C(=O)[C@@H](C)[C@@H](O)[C@H](C)C3O[C@@H](C(CC)C(=O)O)CC[C@@H]3C)[C@@H](C)C[C@H]2C)O[C@@]12CC[C@@](C)([C@H]1CC[C@](O)(CC)[C@H](C)O1)O2` (stereo partly shown) [AM5, Sal-Propargylamine], for which the “levels of IRP2, TfR and ferritin” value in the data set on iCSCA2 cells is “response characteristic of a cytosolic depletion of iron”. For the same molecule, the level of ferritin result in [1] is recorded as “reduced the level of ferritin”. For the same molecule, in data set [1], the “response of IRP2 and TfR levels” value is “did not observe a response characteristic of a cytosolic depletion of iron”. In the data set on MCF-7 tumors, the “iron(III) in tumor tissue” value was “accumulation of iron(III)”. The “form of cell death” value in the data set on iCSCL-10A2 cells was “ferroptosis”. In data set [2], the “effect against ALDH+ subpopulation” value was “selectively targeted the ALDH+ subpopulation; also recorded: more effectively than Sal”. Moreover, the “toxicity against primary breast cells” value in the data set with primary breast cells was “little toxicity”. The “Sensibility to AM5” value with BT474 is listed as “Second”; with BT549 it was “Resistant”; in the data set on HBL100, “First”; with HMLER CD24^high, “First”; in the data set with MCF-7, “First”; with MDA-MB-134, “Second”. Also, the “Sensibility to AM5” value is “Second” with MDA-MB-231; “Second” with MDA-MB-361; “Second” with MDA-MD-157; “Resistant” with T47D; “First” with Zr75.1; “Third” with SW480. Further, in the data set on SW620, the “Sensibility to AM5” value is “Third”.
On to `CC[C@@H](C(=O)[C@@H](C)[C@@H](O)[C@H](C)[C@@H]1O[C@@H]([C@@H](CC)C(=O)O)CC[C@@H]1C)[C@H]1O[C@]2(C=C[C@@H](O)[C@]3(CC[C@@](C)([C@H]4CC[C@](O)(CC)[C@H](C)O4)O3)O2)[C@H](C)C[C@@H]1C` [Sal, salinomycin, reference compound], for which the “levels of IRP2, TfR and ferritin” value in the data set with iCSCA2 cells is “response characteristic of a cytosolic depletion of iron”. Moreover, in data set [1], the level of ferritin result is “reduced the level of ferritin”; the “response of IRP2 and TfR levels” value is “did not observe a response characteristic of a cytosolic depletion of iron”. Besides, the “effect on iron reactivity (fluorogenic reduction of RhoNox-1)” value in “RhoNox-1 reduction assay” is given as “without altering its reactivity”. In the data set on iCSCL-10A2 cells, the “form of cell death” value was “ferroptosis”.
